The text below walks through data of patent US5607937A, “Piperazides of substituted phenylalanine derivatives as thrombin inhibitors” (priority 1993, dated 1997).

Where two headings read alike, the source gives them in different places. Where only a bound is given, the exact number is not on record here.

One assay deals with plasma kallikrein (Homo sapiens, UniProt P03952). In words: inhibition of plasma kallikrein, dissociation constant Ki.
The next assay concerns the target tPA (Homo sapiens, UniProt P00750). In words: inhibition of tPA, dissociation constant Ki.
The target in another assay is T1, factor XIIa (Homo sapiens, UniProt P00748).
T1 sequence (P00748 373-615 limits assumed): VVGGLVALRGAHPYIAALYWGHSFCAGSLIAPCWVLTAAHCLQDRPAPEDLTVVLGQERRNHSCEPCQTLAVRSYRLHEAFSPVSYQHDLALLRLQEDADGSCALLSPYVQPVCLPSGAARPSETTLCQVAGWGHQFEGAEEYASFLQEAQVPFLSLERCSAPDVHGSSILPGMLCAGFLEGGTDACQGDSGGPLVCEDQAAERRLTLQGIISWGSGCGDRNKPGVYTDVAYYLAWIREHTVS
The assay can be described thus: inhibition of factor XIIa, dissociation constant Ki.

A further assay has as its target glandular kallikrein (Sus scrofa, UniProt P00752). In words: inhibition of glandular kallikrein, dissociation constant Ki.
The target of another assay is factor Xa (Bos taurus, UniProt P00743). The assay can be described thus: inhibition of factor Xa, dissociation constant Ki. To be noted: Table 1. Format: biochemical. As for the experimental part:
(§1) The biological activity of the compounds of the present invention was determined in vitro as well as in vivo.

In a further assay the target is plasmin (Homo sapiens, UniProt P00747). The assay can be described thus: inhibition of plasmin, dissociation constant Ki.
Sequence of plasmin (P00747 581-810 limits assumed): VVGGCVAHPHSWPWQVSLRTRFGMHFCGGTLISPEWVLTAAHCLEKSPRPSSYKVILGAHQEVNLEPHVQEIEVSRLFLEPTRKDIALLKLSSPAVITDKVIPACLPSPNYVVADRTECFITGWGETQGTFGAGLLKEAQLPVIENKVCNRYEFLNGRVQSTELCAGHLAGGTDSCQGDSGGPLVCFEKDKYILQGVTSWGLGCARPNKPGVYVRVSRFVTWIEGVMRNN
Sequence of plasmin (P00747 97-580 partner limits assumed): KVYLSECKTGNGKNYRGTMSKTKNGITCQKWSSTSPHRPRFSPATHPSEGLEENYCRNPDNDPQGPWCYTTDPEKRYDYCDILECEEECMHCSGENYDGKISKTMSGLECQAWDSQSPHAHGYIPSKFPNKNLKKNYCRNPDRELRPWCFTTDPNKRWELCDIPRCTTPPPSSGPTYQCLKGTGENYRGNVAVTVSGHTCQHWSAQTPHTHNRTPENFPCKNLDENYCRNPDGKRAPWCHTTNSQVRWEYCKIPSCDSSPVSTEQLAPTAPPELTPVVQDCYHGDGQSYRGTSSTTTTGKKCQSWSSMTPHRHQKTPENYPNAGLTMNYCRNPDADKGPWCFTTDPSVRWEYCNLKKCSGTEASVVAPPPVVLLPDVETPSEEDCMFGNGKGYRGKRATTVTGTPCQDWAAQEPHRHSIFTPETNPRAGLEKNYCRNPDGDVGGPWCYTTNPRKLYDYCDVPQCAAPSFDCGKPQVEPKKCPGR
Assay [1] concerns the target T2, thrombin (Bos taurus, UniProt P00735).
The target of a further assay is T3, trypsin (Bos taurus, UniProt P00760).
T3 sequence (P00760 24-246): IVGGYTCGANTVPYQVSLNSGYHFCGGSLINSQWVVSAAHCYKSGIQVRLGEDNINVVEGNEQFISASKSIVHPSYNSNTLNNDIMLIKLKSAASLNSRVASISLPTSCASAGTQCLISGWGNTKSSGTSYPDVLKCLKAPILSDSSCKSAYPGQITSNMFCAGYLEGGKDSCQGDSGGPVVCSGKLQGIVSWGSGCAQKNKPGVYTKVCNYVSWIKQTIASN
In words: inhibition of trypsin, dissociation constant Ki. Format: biochemical. More on the design: thrombin and the related enzymes trypsin, plasmin, factor Xa, factor XIIa. The note with it: Table 1; read-out: Ki, Trypsin. As for the experimental part: as §1

Assay [2] has as its target T2, thrombin. In words: biochemical.
Where [3] appears, read: read-out: Ki, Thrombin, Table 1.

Sequence of tPA (P00750 36-562): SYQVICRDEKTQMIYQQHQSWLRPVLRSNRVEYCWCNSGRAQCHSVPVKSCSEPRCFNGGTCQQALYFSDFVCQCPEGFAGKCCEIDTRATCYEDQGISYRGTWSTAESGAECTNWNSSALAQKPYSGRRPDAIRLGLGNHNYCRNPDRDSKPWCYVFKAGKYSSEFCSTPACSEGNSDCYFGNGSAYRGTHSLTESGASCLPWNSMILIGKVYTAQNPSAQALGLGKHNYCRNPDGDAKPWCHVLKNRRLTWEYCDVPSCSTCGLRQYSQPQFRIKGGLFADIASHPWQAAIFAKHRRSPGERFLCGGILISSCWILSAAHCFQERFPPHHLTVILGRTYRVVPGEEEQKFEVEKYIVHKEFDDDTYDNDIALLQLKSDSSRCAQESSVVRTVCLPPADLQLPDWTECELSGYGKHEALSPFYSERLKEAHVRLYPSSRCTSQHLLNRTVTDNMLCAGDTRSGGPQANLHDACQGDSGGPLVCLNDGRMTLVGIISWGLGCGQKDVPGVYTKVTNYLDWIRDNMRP
Sequence of factor Xa (P00743 234-492 limits assumed): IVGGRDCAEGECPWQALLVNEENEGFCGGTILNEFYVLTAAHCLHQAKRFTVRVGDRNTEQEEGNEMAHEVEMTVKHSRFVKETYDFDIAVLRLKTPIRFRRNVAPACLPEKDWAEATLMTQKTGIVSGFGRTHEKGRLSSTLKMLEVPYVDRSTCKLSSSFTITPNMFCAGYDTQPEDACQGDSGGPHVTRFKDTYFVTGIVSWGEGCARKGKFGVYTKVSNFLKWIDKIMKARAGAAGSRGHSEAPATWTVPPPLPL
Sequence of factor Xa (P00743 41-180 partner limits assumed): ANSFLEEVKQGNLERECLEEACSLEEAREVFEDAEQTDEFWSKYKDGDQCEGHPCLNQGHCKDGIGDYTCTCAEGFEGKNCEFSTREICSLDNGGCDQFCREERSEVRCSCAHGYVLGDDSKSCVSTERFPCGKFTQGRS
Sequence of plasma kallikrein (P03952 391-638 limits assumed, species assumed): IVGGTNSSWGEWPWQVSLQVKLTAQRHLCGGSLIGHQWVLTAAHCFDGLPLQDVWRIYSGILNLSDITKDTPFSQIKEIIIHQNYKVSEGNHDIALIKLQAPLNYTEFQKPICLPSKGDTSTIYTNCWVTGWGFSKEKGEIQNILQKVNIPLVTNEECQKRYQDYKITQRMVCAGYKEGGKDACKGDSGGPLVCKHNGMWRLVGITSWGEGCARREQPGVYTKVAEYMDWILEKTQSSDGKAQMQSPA
Sequence of plasma kallikrein (P03952 20-390 partner limits assumed, species assumed): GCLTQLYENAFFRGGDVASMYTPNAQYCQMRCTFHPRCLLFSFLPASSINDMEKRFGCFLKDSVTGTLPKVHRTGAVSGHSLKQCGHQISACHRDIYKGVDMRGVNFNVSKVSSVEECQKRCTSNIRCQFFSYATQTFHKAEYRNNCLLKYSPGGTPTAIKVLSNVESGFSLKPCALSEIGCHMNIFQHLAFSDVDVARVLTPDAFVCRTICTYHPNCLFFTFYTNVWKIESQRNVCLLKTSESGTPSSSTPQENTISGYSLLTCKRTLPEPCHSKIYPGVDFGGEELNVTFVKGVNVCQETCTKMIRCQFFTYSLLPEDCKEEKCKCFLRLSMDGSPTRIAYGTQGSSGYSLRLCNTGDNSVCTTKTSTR
Sequence of glandular kallikrein (P00752 8-246): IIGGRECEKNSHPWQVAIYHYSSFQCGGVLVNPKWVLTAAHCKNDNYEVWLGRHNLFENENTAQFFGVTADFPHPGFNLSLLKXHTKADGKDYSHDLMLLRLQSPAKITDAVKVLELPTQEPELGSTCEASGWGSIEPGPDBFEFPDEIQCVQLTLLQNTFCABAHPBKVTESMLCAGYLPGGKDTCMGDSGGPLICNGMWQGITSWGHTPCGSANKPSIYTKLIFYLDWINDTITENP

As for `COc1cc(C)c(S(=O)(=O)NC(Cc2cccc(C(=N)N)c2)C(=O)N2CCN(S(C)(=O)=O)CC2)c(C)c1C` (stereo not shown) [AMD Mtr SO2 Me], the Ki was 150 µM at plasma kallikrein; > 1000 µM at tPA; 630 µM at factor XIIa; > 1000 µM on glandular kallikrein; 120 µM at factor Xa; 18 µM on plasmin (read-out: Ki, Plasmin, Table 1). In addition, the Ki on thrombin [1] (setting [3]) was determined as 0.032 µM.
With `COc1cc(C)c(S(=O)(=O)N2CCN(C(=O)C(Cc3cccc(C(=N)N)c3)NS(=O)(=O)c3ccc4ccccc4c3)CC2)c(C)c1C` (stereo not shown) [AMD 2-Naph SO2 -Mtr], the Ki was 6.9 µM at plasma kallikrein; > 1000 µM on tPA; 1.5 µM on trypsin; 7.6 µM at factor XIIa; > 1000 µM on glandular kallikrein; 25 µM on factor Xa. Besides, the Ki at plasmin was 37 µM; at thrombin [2], 0.05 µM.
On to `CCCCCC(=O)N1CCN(C(=O)C(Cc2cccc(C(=N)N)c2)NS(=O)(=O)c2ccc3ccccc3c2)CC1` (stereo not shown) [AMD 2-Naph CO(CH2)4 CH3], for which the Ki on plasma kallikrein is 23 µM; at tPA it was > 1000 µM; at factor XIIa it was 270 µM; at glandular kallikrein, > 1000 µM; at factor Xa, 19 µM; on plasmin (read-out: Ki, Plasmin, Table 1) it was 2.6 µM. Moreover, the Ki on thrombin [1] (setting [3]) worked out at 6.5 µM.
Regarding `N=C(N)c1cccc(CC(NS(=O)(=O)c2ccc3c(c2)C(=O)c2ccccc2C3=O)C(=O)N2CCN(C=O)CC2)c1` (stereo not shown) [AMD AC For], the Ki on plasma kallikrein is 11 µM; on tPA it was 84 µM; at trypsin, 0.033 µM; at factor XIIa, 7.2 µM; on glandular kallikrein, > 1000 µM; at factor Xa, 1.7 µM. Moreover, the Ki was determined as 13 µM at plasmin and 0.031 µM on thrombin [2].
With `CC(=O)N1CCN(C(=O)C(Cc2cccc(C(=N)N)c2)NS(=O)(=O)c2c(C)c(C)c3c(c2C)CCC(C)(C)O3)CC1` (stereo not shown) [AMD Pmc Ac], the inhibition constant Ki on plasma kallikrein was 44 µM; on tPA, 670 µM; at trypsin, 0.6 µM; at factor XIIa it was 420 µM; at glandular kallikrein it was 760 µM; on factor Xa it was 150 µM. Moreover, the figures for the Ki on plasmin and on thrombin [2] were 11.5 µM and 0.074 µM, respectively.
Consider `N=C(N)c1cccc(CC(NS(=O)(=O)c2ccc3ccccc3c2)C(=O)N2CCN(CCO)CC2)c1` (stereo not shown) [AMD 2-Naph EtOH], for which the inhibition constant (Ki) at plasma kallikrein was 74 µM; on tPA, > 1000 µM; at factor XIIa (Ki, Factor XIIa, Table 1) it was > 1000 µM; on glandular kallikrein, > 1000 µM; at factor Xa, 35 µM; on plasmin (read-out: Ki, Plasmin, Table 1), 42 µM. Besides, the Ki on thrombin [1] (read-out: Ki, Thrombin) came out at 0.058 µM.
As to `Cc1ccc(S(=O)(=O)N2CCN(C(=O)C(Cc3cccc(C(=N)N)c3)NS(=O)(=O)c3ccc4ccccc4c3)CC2)cc1` (stereo not shown) [AMD 2-Naph SO2 -Tol], the Ki at plasma kallikrein is 30 µM; at tPA it was > 1000 µM; at factor XIIa, > 1000 µM; on glandular kallikrein, > 1000 µM; at factor Xa it was 24 µM; on plasmin (read-out: Ki, Plasmin, Table 1), 15 µM. The Ki at thrombin [1] (setting [3]) was found to be 0.022 µM.
For `N=C(N)c1cccc(CC(NS(=O)(=O)c2ccc3ccccc3c2)C(=O)N2CCN(S(=O)(=O)c3ccccc3)CC2)c1` (stereo not shown) [AMD 2-Naph SO2 -Ph], the Ki at plasma kallikrein is 36 µM; on tPA it was > 1000 µM; on factor XIIa, 120 µM; on glandular kallikrein, > 1000 µM; at factor Xa it was 24 µM; at plasmin (read-out: Ki, Plasmin, Table 1) it was 19 µM. On thrombin [1] (setting [3]), the Ki stood at 0.041 µM.
Regarding `CN(C)C(=O)N1CCN(C(=O)C(Cc2cccc(C(=N)N)c2)NS(=O)(=O)c2cccc3ccccc23)CC1` (stereo not shown) [AMD 1-Naph CO2 N(Me)2], the Ki on plasma kallikrein (read-out: Ki, Plasma kallikr., Table 1) is 37 µM; on tPA (read-out: Ki, tPA, Table 1), 270 µM; at trypsin, 0.25 µM; at factor XIIa (read-out: Ki, Factor XIIa, Table 1) it was 72 µM; on glandular kallikrein (read-out: Ki, Gland. kallikr., Table 1), > 1000 µM; at factor Xa it was 5.9 µM. For the same compound, the Ki amounted to 4.8 µM on plasmin (read-out: Ki, Plasmin, Table 1) and 0.068 µM at thrombin [1] (setting [3]).
For the compound `Cc1c(C)c(S(=O)(=O)NC(Cc2cccc(C(=N)N)c2)C(=O)N2CCN(S(C)(=O)=O)CC2)c(C)c2c1OC(C)(C)CC2` (stereo not shown) [AMD Pmc SO2 Me], the Ki is 140 µM on plasma kallikrein; > 1000 µM at tPA; 140 µM at factor XIIa; > 1000 µM at glandular kallikrein; 75 µM at factor Xa; 0.0074 µM on thrombin [1] (setting [3]).
`N=C(N)c1cccc(CC(NS(=O)(=O)c2ccc3ccccc3c2)C(=O)N2CCN(C=O)CC2)c1` (stereo not shown) [AMD 2-Naph For]: the Ki was 16 µM at plasma kallikrein; > 1000 µM on tPA; 83 µM at factor XIIa; 440 µM on glandular kallikrein; 19 µM at factor Xa; 6.3 µM at plasmin (read-out: Ki, Plasmin, Table 1). In addition, the Ki at thrombin [1] (read-out: Ki, Thrombin) was determined as 0.037 µM.
`COCC(=O)N1CCN(C(=O)C(Cc2cccc(C(=N)N)c2)NS(=O)(=O)c2ccc3ccccc3c2)CC1` (stereo not shown) [AMD 2-Naph COCH2 OMe]: the inhibition constant (Ki) at plasma kallikrein was 16 µM; at tPA it was > 1000 µM; on trypsin, 0.066 µM; at factor XIIa, 74 µM; on glandular kallikrein, > 1000 µM; on factor Xa it was 16 µM. The results for the Ki on plasmin and at thrombin [2] were 6.2 µM and 1.3 µM, respectively.
Take `CS(=O)(=O)N1CCN(C(=O)C(Cc2cccc(C(=N)N)c2)NS(=O)(=O)c2cccc3ccccc23)CC1` (stereo not shown) [Compound 11]: the inhibition constant (Ki) on plasma kallikrein was 79 µM; on tPA it was > 1000 µM; at factor XIIa, > 1000 µM; on glandular kallikrein, > 1000 µM; at factor Xa, 9.7 µM; at plasmin (read-out: Ki, Plasmin, Table 1) it was 5 µM. The Ki at thrombin [1] (setting [3]) came out at 0.026 µM; on thrombin [1] (read-out: Thrombin inhibition Ki, Table 7), 0.026 µM.
`CCS(=O)(=O)N1CCN(C(=O)C(Cc2cccc(C(=N)N)c2)NS(=O)(=O)c2ccc3ccccc3c2)CC1` (stereo not shown) [AMD 2-Naph SO2 Et]: the inhibition constant Ki on plasma kallikrein is 58 µM; on tPA, 820 µM; at factor XIIa, 212 µM; at glandular kallikrein, > 1000 µM; at factor Xa it was 24 µM; on plasmin (read-out: Ki, Plasmin, Table 1), 3.5 µM. Moreover, the Ki at thrombin [1] (setting [3]) was 0.044 µM.
`N=C(N)c1cccc(CC(NS(=O)(=O)c2ccc3ccccc3c2)C(=O)N2CCN(S(=O)(=O)c3ccc4ccccc4c3)CC2)c1` (stereo not shown) [AMD 2-Naph SO2-2-Naph]: the Ki is 22 µM at plasma kallikrein; > 1000 µM on tPA; 90 µM on factor XIIa; > 1000 µM at glandular kallikrein; 25 µM at factor Xa; 11 µM on plasmin (read-out: Ki, Plasmin, Table 1). Also, at thrombin [1] (setting [3]), the Ki came to 0.024 µM.
As to `NCc1cccc(CC(NS(=O)(=O)c2ccc3ccccc3c2)C(=O)N2CCN(c3ccccn3)CC2)c1` (stereo not shown) [Ame 2-Naph 2-Pyl], the Ki was 94 µM at plasma kallikrein; > 1000 µM at tPA; 0.53 µM on trypsin; > 1000 µM on factor XIIa; > 1000 µM at glandular kallikrein; 130 µM on factor Xa. Besides, the Ki at plasmin was determined as 26 µM; on thrombin [2], 24 µM.
Turning to `Cc1c(C)c(S(=O)(=O)NC(Cc2cccc(C(=N)N)c2)C(=O)N2CCN(CCO)CC2)c(C)c2c1OC(C)(C)CC2` (stereo not shown) [AMD Pmc EtOH], the Ki was 180 µM on plasma kallikrein; > 1000 µM on tPA; 3.3 µM on trypsin; > 1000 µM on factor XIIa; > 1000 µM on glandular kallikrein; 91 µM on factor Xa. Moreover, the figures for the Ki on plasmin and at thrombin [2] were 48 µM and 0.059 µM, respectively.
Regarding `N=C(N)c1cccc(CC(NS(=O)(=O)c2ccc3ccccc3c2)C(=O)N2CCN(c3ncccn3)CC2)c1` (stereo not shown) [AMD 2-Naph 2-Pym], the Ki is 19 µM at plasma kallikrein; 320 µM on tPA; 0.061 µM at trypsin; 100 µM at factor XIIa; > 1000 µM at glandular kallikrein; 14 µM on factor Xa. The Ki was 3.3 µM at plasmin and 1.8 µM on thrombin [2].
As for `Cc1c(C)c(S(=O)(=O)NC(Cc2cccc(C(=N)N)c2)C(=O)N2CCN(C(=O)N(C)C)CC2)c(C)c2c1OC(C)(C)CC2` (stereo not shown) [AMD Pmc CO-N(Me)2], the Ki at plasma kallikrein is 93 µM; at tPA, > 1000 µM; at trypsin it was 0.58 µM; on factor XIIa, > 1000 µM; on glandular kallikrein it was > 1000 µM; on factor Xa it was 26 µM. Besides, the Ki on plasmin turned out to be 13 µM; on thrombin [2], 0.033 µM.
